How the values were obtained:
A549 and H1975 cells [1] = assay: Apoptosis assay, co-treatment with Proscillaridin A; format: cell-based
Method: (§1) A549, H1975 and HCC827 cells (1×10^5 cells /well) were seeded in a 6 -well plate for 24 h, and treated with the indicated concentrations of Proscillaridin A for an additional 24 h at 37° C. After indicated hours, the cells were washed by ice-cold 1×PBS once and harvested by trypsination. Then cell were centrifuged, collected and resuspended in ice-cold 1×PBS. After removing the supernatants, cell pellets were re-suspended in 100 μL 1× Annexin-binding buffer. The cells were then double-stained with Annexin-V FITC and PI (100 μg/mL) of 2 μL respectively for 15 min at room temperature in dark. After that, 300 μL 1× Annexin-binding buffer was added. Apoptotic cells were quantitatively counted by a BD Aria III Flow Cytometer (BD Biosciences, San Jose, Calif., USA).

A549 cells [2] = assay: MTT cytotoxicity assay; format: cell-based; conditions: A549, EGFR wild type, 24 h
Method: (§2) Cells were seeded in a 96-well microplate with 3000-5000 cells/well confluence, and put into the incubator overnight for cells adhesion. Different concentrations of drug Proscillaridin A were added with Dimethyl sulfoxide (DMSO) as vehicle control. The microplates were incubated for further 24 h. Each dosage was repeated in triplicate. 10 μL of MTT (5 mg/mL) solution was added to each well. The plate was placed back into the incubator for 4 h. After that, 100 μL of resolved solution (10% SDS and 0.1 mM HCL) was added to each well.
(§3) Before dissolving the formazan crystals, the microplate was put back into the incubator for another 4 h. The absorbance of the plate was measured at 570 nm with reference 650 nm by a microplate reader (Tecan, Morrisville, N.C., USA). Cell viability was calculated by percentages of the absorbance of the treatment group divided by the absorbance of untreated group. At least three independent experiments were performed for data analysis and presentation.

[3] = system: CCD19-LU normal lung fibroblast cell line; assay: MTT cytotoxicity assay; format: cell-based
Method: as §2, §3

H1975 cells [4] = assay: MTT cytotoxicity assay; format: cell-based; conditions: H1975, EGFR double mutant, 24 h
Method: as §2, §3

H2228 cells = assay: MTT cytotoxicity assay; format: cell-based; conditions: H2228, EML4-ALK, 24 h
Method: as §2, §3

H358 cells = assay: MTT cytotoxicity assay; format: cell-based; conditions: H358, KRAS, 24 h
Method: as §2, §3

HCC78 cells = assay: MTT cytotoxicity assay; format: cell-based; conditions: HCC78, SLC3482-ROS, 24 h
Method: as §2, §3

HCC827 cells [5] = assay: MTT cytotoxicity assay; format: cell-based; conditions: HCC827, EGFR exon 19 deletion, 24 h
Method: as §2, §3

Na^+/K^+ ATPase = Na^+/K^+ ATPase enzyme activity assay; format: biochemical; conditions: in vitro, enzyme from porcine cerebral cortex
Method: The enzymatic activity of Na^+/K^+ ATPase (purchased from Sigma as lyophilized powder from porcine cerebral cortex) was measured by colorimetric quantification of P, released during ATP hydrolysis. A previously published procedure was adapted with some modifications. Begin with incubating 10 μl of Na^+/K^+ ATPase (600 units/m1) with 2.5 μl of KCl/NaCl solution (45 mM KCl and 2 M NaCl) at 37° C. for 30 min with either 5 μl of DMSO (control) or 5 μl of P.A (in different indicated concentrations) in 67.5 μl of buffer (24 mM Tric HCl buffer with 0.68 mM ethylenediaminetetraacetic acid and 6.0 mM magnesium chloride, pH 7.8). ATP (5 μl of 80 mM solution) was then added, and the reaction mixture was incubated again at 37° C. for 15 min. Trichloroacetic acid (30 μl of 100% w/v) was then added to the reaction mixture followed by centrifugation for 5 min. Supernatant (50 μl aliquot) was transferred to a 96 well plated containing 100 μl of Taussky-Shorr reagent. The absorbance at 660 nm was read after incubation at RT for 5 min.

A549 cells [6] = assay: Apoptosis assay (Annexin-V/PI flow cytometry); format: cell-based
Method: as §1

H1975 cells [7] = assay: Apoptosis assay (Annexin-V/PI flow cytometry); format: cell-based
Method: as §1

HCC827 cells [8] = assay: Apoptosis assay (Annexin-V/PI flow cytometry); format: cell-based; conditions: HCC827, 50 nM, 24 h
Method: as §1

[9] = system: EGFR phosphorylation of tyrosine residue 1173 in H1975; assay: Western blot of EGFR activation; format: cell-based; conditions: H1975, 18 hours
Method: (§4) After incubation A549, H1975 and HCC827 cells with Proscillaridin A for 18 hours, cells were harvested and washed with cold 1× PBS. Then, cells were lysed with ice-cold RIPA lysis buffer with protease and phosphatase inhibitors added to extract the cell protein extraction. The supernatants were collected by centrifugation at 12,000 g, for 5 min. The quantitation of total protein extraction was measured by Bio-Rad DCTM protein assay kit (Bio-Rad, Philadelphia, Pa., USA). Then 35 μg of protein were loaded and electrophoretically separated on 8% SDS-PAGE gel and then transferred to Nitrocellulose (NC) membrane.
(§5) Membranes were blocked with 5% non-fat milk and […] containing 0.1% Tween-20 (TBST) for 1 h at room temperature. After 1 h, membranes were incubated with primary antibodies (1:1000 dilution) against β-actin, GAPDH, total/phosphor-EGFR, total/phosphor-AKT, total/phosphor-JNK, total/phosphor-AMPK, total/phosphor-ACC, phosphor-mTOR, IKK-α, Iκ-Bα, phosphor-NFκB-P65, Caspase-9, Caspase-7, BAX and Bcl-2 at 4° C. with gently shaking overnight. Membranes were washed with TBST for 3 times (5 min/time), and incubated with secondary fluorescent antibody (1:10000 dilutions) for 1 h at room temperature. Rewashing with TBST for 3 times (15 min/time), the stripes were visualized by LI-COR Odessy scanner (Belfast, Me., USA).

[10] = system: EGFR phosphorylation of tyrosine residue 1173 in HCC827; assay: Western blot of EGFR activation; format: cell-based; conditions: HCC827, 18 hours
Method: as §4, §5

[11] = system: A549, H1975 and HCC827 cells; assay: Colony-formation assay; format: cell-based; conditions: all three cell lines
Method: Colony-forming assay was performed as previously described. Briefly, About 300 cells were plated into every well of 6 -well plate with 2 ml of culture medium and grown at 37° C. with 5% CO2. After 48 h culture for cell adherence to the plate, rinsed with fresh medium, Proscillaridin A (with indicated different dosages) was added to the medium. 48 h later, the cells were washed twice with PBS and then incubated in drug-free medium. The medium was changed every 5 days. After culturing for additional 10 to 14 days, the medium was discarded and each dish was washed twice with PBS carefully. The cells were fixed with 3.7% Paraformaldehyde for 20 min and 0.2% crystal violet solution in 10% ethanol for 10 min. Excess stain was removed by washing repeatedly with PBS. All the procedures were done at room temperature. The plates can be stored at room temperature or at +4° C. for several months without any visible fading of the dye.

A549 and H1975 cells [12] = assay: Measurement of intracellular calcium (Fluo-3); format: cell-based; conditions: A549 and H1975, after 6 h
Method: Changes in intracellular free calcium were measured by a fluorescent dye, Fluo-3 as previously described. Briefly, A549 and H1975 cells were washed twice with culture media after Proscillaridin A treatment (6.25-25 nM) for 6 hours. Then cell suspensions were incubated with 5 μM Fluo-3 at 37° C. for 30 min. After the cells were washed twice with HBSS, the re-suspended cell samples were then subjected to FACS analysis. At least 10,000 events were analyzed.

[13] = system: PARP, Caspase-7, Caspase-9, AKT, BAX, Bcl-2; assay: Western blot of apoptosis-related proteins; format: cell-based; conditions: A549, H1975, HCC827
Method: as §4, §5

AMPK phosphorylation = assay: Western blot; format: cell-based; conditions: FIG. 8A
Method: as §4, §5

JNK phosphorylation = assay: Western blot; format: cell-based; conditions: FIG. 8A
Method: as §4, §5

NF-κB pathway = assay: Western blot; format: cell-based; conditions: dose-dependent
Method: as §4, §5

[14] = system: acetyl-CoA carboxylase (ACC) phosphorylation; assay: Western blot; format: cell-based; conditions: FIG. 8A
Method: as §4, §5

mTOR phosphorylation = assay: Western blot; format: cell-based; conditions: FIG. 8A
Method: as §4, §5

DR4 expression = assay: Regular and quantitative RT-PCR; format: cell-based; conditions: 12 h treatment
Method: Cells were incubated with Proscillaridin A for 12 hours. Total RNA was then extracted from treated cells using a TRIzol reagent (Invitrogen, Carlsbad, Calif., USA) following the manufacturer's instructions and was used to prepare cDNA. Quantitative real-time PCR was performed with High-productivity Real-Time quantitative PCR ViiA™7 (Life Technologies).
The glyceraldehyde […] dehydrogenase (GAPDH) gene was used as the reference gene. All data were means of fold change of triplicate analysis and normalized with those of GAPDH.

Compound: c1cc(-c2cnn3cc(-c4ccc(OCCN5CCCCC5)cc4)cnc23)ccn1 [Compound C]
- apoptotic cells after co-treatment with Proscillaridin A (A549 and H1975 cells [1]; AMPK inhibitor co-treatment, A549 and H1975): partially weakened the apoptotic cells

Compound: Proscillaridin A
- CC50 (A549 cells [2]): 14 ± 2.8 nM
- CC50 ([3]; CCD19-LU normal fibroblast cell, 24 h): > 400 nM
- inhibition of cell proliferation in normal lung fibroblast cells ([3]; CCD19-LU, 30-folds higher concentrations of the CC50 in EGFR-dependent NSCLC cells): no significant inhibitory effect
- CC50 (H1975 cells [4]): 15 ± 3.6 nM
- CC50 (H2228 cells): 23.6 ± 5.4 nM
- CC50 (H358 cells): 25.8 ± 4.9 nM
- CC50 (HCC78 cells): 37.6 ± 9.9 nM
- CC50 (HCC827 cells [5]): 13.9 ± 1.8 nM
- IC50 (Na^+/K^+ ATPase): 0.83 ± 0.3 nM
- apoptotic cells (A549 cells [6]; A549, 50 nM, 24 h): about 70%
- concentration at which significant induction of apoptosis starts (A549 cells [6]; A549, 24 h): 12.5 nM
- apoptotic cells (H1975 cells [7]; H1975, 50 nM, 24 h): about 70%
- concentration at which significant induction of apoptosis starts (H1975 cells [7]; H1975, 24 h): 25 nM
- increase of apoptosis (HCC827 cells [8]): about 10%
- EGFR activation (phosphorylation of tyrosine residue 1173) [9]: inhibited the EGFR activation
- EGFR activation (phosphorylation of tyrosine residue 1173) [10]: inhibited the EGFR activation
- clonogenic growth (colony formation) [11]: can suppress clonogenic growth
- cellular Ca^2+ level (A549 and H1975 cells [12]): remarkably increases the in vitro Ca^2+ level
- AKT activation [13]: inhibited
- BAX level [13]: up-regulated
- Bcl-2 level [13]: down-regulated
- PARP, Caspase-7 and Caspase-9 cleavage [13]: cleaved and activated
- phosphorylation of AMPK (AMPK phosphorylation): significantly induced the phosphorylation of AMPK
- phosphorylation of JNK (JNK phosphorylation): significantly activated the phosphorylation of JNK
- NF-κB pathway activation (NF-κB pathway): significantly inhibited
- phosphorylation of ACC [14]: significantly induced the phosphorylation
- phosphorylation of mTOR (mTOR phosphorylation): inhibited the phosphorylation of mTOR
- DR4 gene expression (DR4 expression): significantly elevated

Compound: CC(=O)OCOC(=O)CN(CC(=O)OCOC(C)=O)c1ccccc1OCCOc1ccccc1N(CC(=O)OCOC(C)=O)CC(=O)OCOC(C)=O [BAPTA/AM]
- apoptotic cells after co-treatment with Proscillaridin A (A549 and H1975 cells [1]; Ca^2+ chelator co-treatment, flow cytometry): significant decrease of apoptotic cells
